Paper PMC10385826, “Towards Symmetric Thioamides: Microwave-Aided Synthesis of Terephthalic Acid Derivatives” (Pharmaceuticals, 2023)

conditions: not given

Row | SMILES | melting point [°C]
1 | COC(=O)C(NC(=S)c1ccc(C(=S)NC(C(=O)OC)C(C)C)cc1)C(C)C (stereo not drawn) | 160
2 | COC(=O)CNC(=S)c1ccc(C(=S)NCC(=O)OC)cc1 | 86
3 | COC(=O)C(C)NC(=S)c1ccc(C(=S)NC(C)C(=O)OC)cc1 (stereo not drawn) | 174

The remaining lines, values ahead:

Row | melting point [°C] | SMILES
4 | 179 | COC(=O)C(CO)NC(=S)c1ccc(C(=S)NC(CO)C(=O)OC)cc1 (stereo not drawn)
5 | 185 | COC(=O)C(Cc1ccc(O)cc1)NC(=O)c1ccc(C(=O)NC(Cc2ccc(O)cc2)C(=O)OC)cc1 (stereo not drawn)
6 | 169 | COC(=O)C(CO)NC(=O)c1ccc(C(=O)NC(CO)C(=O)OC)cc1 (stereo not drawn)
7 | 170 | COC(=O)C(Cc1ccc(O)cc1)NC(=S)c1ccc(C(=S)NC(Cc2ccc(O)cc2)C(=O)OC)cc1 (stereo not drawn)
8 | 115 | COC(=O)C(NC(=O)c1ccc(C(=O)NC(C(=O)OC)C(C)C)cc1)C(C)C (stereo not drawn)

parameters: method as in PMID 16673812; conditions: oral administration; cited from earlier work

Row | SMILES | LD50 [mg/kg]
9 | O=C(O)c1ccc(C(=O)O)cc1 [TPA, Terephthalic acid] | > 5000
